In ChEMBL document CHEMBL5120925, “Antagonistic Effect and In Vitro Activity of Dauricine on Glucagon Receptor” (J Nat Prod, 2022):
Active and inactive are the calls of the source. No cut-off for these calls is given here.

Experiments:
[1] = Cytotoxicity against HEK293 cells assessed as inhibition of cell growth incubated for 24 hrs by MTT assay; assay type: toxicity, cell-based; conditions: human
[2] = biological target: Glucagon receptor (Homo sapiens) (UniProt P47871); test: Antagonist activity at GCGR (unknown origin) expressed in HEK293 cells assessed as inhibition of GCG binding by measuring increase in fluorescence intensity at 10 uM incubated for 30 to 40 mins by FLUO-4 AM fluorescence based flow cytometric analysis; assay type: functional, cell-based; conditions: filed as antagonist, time 30-40 min
[3] = biological target: Glucagon receptor (Homo sapiens) (UniProt P47871); test: Antagonist activity at […] (unknown origin) expressed in HEK293 cells assessed as inhibition of GCG binding by measuring increase in fluorescence intensity at 0.1 mM incubated for 30 to 40 mins by FLUO-4 AM based inverted fluorescence microscopic imaging analysis; assay type: functional, cell-based; conditions: filed as antagonist, time 30-40 min

Glucagon receptor (Homo sapiens), sequence (P47871 whole entry): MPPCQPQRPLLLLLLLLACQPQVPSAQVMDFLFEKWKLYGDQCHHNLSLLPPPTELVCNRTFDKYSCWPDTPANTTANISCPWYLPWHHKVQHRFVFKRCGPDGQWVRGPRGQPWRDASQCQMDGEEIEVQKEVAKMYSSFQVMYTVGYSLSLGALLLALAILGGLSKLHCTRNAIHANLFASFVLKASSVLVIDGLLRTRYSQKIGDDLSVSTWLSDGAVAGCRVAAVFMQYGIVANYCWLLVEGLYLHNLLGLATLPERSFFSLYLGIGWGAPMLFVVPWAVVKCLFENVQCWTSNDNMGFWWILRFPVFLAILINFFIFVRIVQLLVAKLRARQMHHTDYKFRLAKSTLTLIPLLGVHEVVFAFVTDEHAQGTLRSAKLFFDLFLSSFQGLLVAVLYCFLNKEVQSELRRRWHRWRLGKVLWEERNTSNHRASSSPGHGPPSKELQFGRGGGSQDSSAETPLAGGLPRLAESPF

## COc1cc2c(cc1OC)[C@@H](Cc1ccc(Oc3cc(C[C@H]4c5cc(OC)c(OC)cc5CCN4C)ccc3O)cc1)N(C)CC2
[1]
  IC50 at 24 h: 10.6 µM
[2]
  Activity: Active

## H-SQGTFTSEYSKYLDSRRAQDFVQWL-NH2
[3]
  Activity: Active
